According to ChEMBL document CHEMBL5661943, “ASAP - In vitro antiviral effect” (2024):

Assays:
[1] = test system: dengue virus type 2; assay: Functional immunofluorescence assay to measure dose dependent changes in antiviral-drug inhibitory efficacy against Dengue virus type 2 Thailand/16681/84 in Vero E6/TMPRSS2 cells (cotreated with P-gp inhibitor, Elacridar). Cells are treated with antiviral candidates that are serially diluted, following infection, cells are fixed. EC50 is reported via analysis of immunofluorescence staining. The assay has been performed by Icahn School of Medicine at Mount Sinai.; format: organism-based, Chlorocebus sabaeus, VeroE6/TMPRSS2; conditions: Dengue virus
[2] = test system: Zika virus; assay: EC50 is reported via analysis of immunofluorescence staining. The assay has been performed by Icahn School of Medicine at Mount Sinai.; format: functional, organism-based, Chlorocebus sabaeus, VeroE6/TMPRSS2; conditions: Zika virus; for EC90: P-gp concentration 2 uM, P-gp inhibitor Elacidar

Row | SMILES | EC50 ([1]; VeroE6/TMPRSS2) [µM] | EC50 ([2]; VeroE6/TMPRSS2) [µM] | also measured
1 | NCc1cccc([C@@H]2C[C@H]2c2cc(Cl)cc(NC(=O)OCc3ccccc3)c2)c1 | > 5.56 | > 5.56 | EC90 ([1]; VeroE6/TMPRSS2, Maximum measured 134.824 %, Minimum measured 97.991 %, P-gp concentration 2 uM, P-gp inhibitor Elacidar): > 5.56 µM; EC90 ([2]; VeroE6/TMPRSS2, Maximum measured 125.497 %, Minimum measured 83.326 %): > 5.56 µM
2 | N#C[C@H](Nc1cccc(-c2nn[nH]n2)c1)c1cc(Cl)cc(NC(=O)OCc2ccccc2)c1 | > 50 | > 50 | EC90 ([1]; VeroE6/TMPRSS2, Baseline response 0 %, Hill slope -0.37, Maximum measured 135.235 %, Maximum response 100 %, Minimum measured 60.402 %, P-gp concentration 2 uM, R squared 0.119, P-gp inhibitor Elacidar): > 50 µM; EC90 ([2]; VeroE6/TMPRSS2, Maximum measured 138.49 %, Minimum measured 54.48 %): > 50 µM
3 | CC[C@H](Cc1nnn[nH]1)c1ccc(NC(=O)c2cc(Cl)cc(-n3cccc3)c2)cc1 | 42.5 | 46.8 | EC90 ([1]; VeroE6/TMPRSS2, Baseline response 0 %, Hill slope -23.366, Maximum measured 115.315 %, Maximum response 100 %, Minimum measured 2.218 %, P-gp concentration 2 uM, R squared 0.505, P-gp inhibitor Elacidar): 46.7 µM; EC90 ([2]; VeroE6/TMPRSS2, Baseline response 0 %, Hill slope -17.276, Maximum measured 183.537 %, Maximum response 154.104 %, Minimum measured 37.545 %, R squared 0.817): > 50 µM
4 | O=S(=O)(Nc1cccc(-c2nnn[nH]2)c1)c1cc(Cl)cc(-c2ccccc2)c1 | 0.611 | > 50 | EC90 ([1]; VeroE6/TMPRSS2, Baseline response 0 %, Hill slope -0.304, Maximum measured 103.918 %, Maximum response 100 %, Minimum measured 7.141 %, P-gp concentration 2 uM, R squared 0.457, P-gp inhibitor Elacidar): > 50 µM; EC90 ([2]; VeroE6/TMPRSS2, Maximum measured 155.311 %, Minimum measured 93.761 %): > 50 µM
5 | C[C@@H](N)c1cccc(NC(=O)[C@H]2[C@H]3CCCCC[C@H]3[C@H]2NC(=O)OCc2ccccc2)c1 | > 5.56 | > 5.56 | EC90 ([1]; VeroE6/TMPRSS2, Baseline response 0 %, Hill slope -0.267, Maximum measured 104.495 %, Maximum response 100 %, Minimum measured 46.505 %, P-gp concentration 2 uM, R squared 0.299, P-gp inhibitor Elacidar): > 5.56 µM; EC90 ([2]; VeroE6/TMPRSS2, Maximum measured 138.527 %, Minimum measured 84.272 %): > 5.56 µM
6 | CCOc1cccc(-c2ccc(S(=O)(=O)Nc3cc4c(cc3C(=O)O)CCC4)cc2)c1 | > 16.7 | > 50 | EC90 ([1]; VeroE6/TMPRSS2, Baseline response 0 %, Hill slope -0.37, Maximum measured 131.408 %, Maximum response 100 %, Minimum measured 56.89 %, P-gp concentration 2 uM, R squared 0.244, P-gp inhibitor Elacidar): > 16.7 µM; EC90 ([2]; VeroE6/TMPRSS2, Baseline response 0 %, Hill slope -16.078, Maximum measured 130.08 %, Maximum response 100 %, Minimum measured 52.734 %, R squared 0.304): > 50 µM
7 | O=C(Nc1cc(Cl)cc(C(=O)Nc2cccc([C@H]3CCNC3)c2)c1)OCc1ccccc1 | > 5.56 | 42.7 | EC90 ([1]; VeroE6/TMPRSS2, Maximum measured 260.488 %, Minimum measured 106.051 %, P-gp concentration 2 uM, P-gp inhibitor Elacidar): > 5.56 µM; EC90 ([2]; VeroE6/TMPRSS2, Baseline response 0 %, Hill slope -21.619, Maximum measured 167.541 %, Maximum response 100 %, Minimum measured 3.263 %, R squared 0.234): 47.3 µM
8 | CCOC(=O)Nc1cc(Cl)cc(C(=O)Nc2cccc(CN)c2)c1 | > 16.7 | > 50 | EC90 ([1]; VeroE6/TMPRSS2, Maximum measured 179.291 %, Minimum measured 97.679 %, P-gp concentration 2 uM, P-gp inhibitor Elacidar): > 16.7 µM; EC90 ([2]; VeroE6/TMPRSS2, Maximum measured 144.074 %, Minimum measured 100.96 %): > 50 µM
9 | O=C(Nc1cc(Cl)cc(S(=O)(=O)Nc2cccc(-c3nn[nH]n3)c2)c1)OCc1ccccc1 | > 50 | > 16.7 | EC90 ([1]; VeroE6/TMPRSS2, Maximum measured 125.288 %, Minimum measured 43.28 %, P-gp concentration 2 uM, P-gp inhibitor Elacidar): > 50 µM; EC90 ([2]; VeroE6/TMPRSS2, Maximum measured 147.808 %, Minimum measured 131.825 %): > 16.7 µM
10 | NCc1ccc(F)c(NC(=O)c2cc(Cl)cc(NC(=O)OCc3ccccc3)c2)c1 | > 5.56 | > 5.56 | EC90 ([1]; VeroE6/TMPRSS2, Maximum measured 158.385 %, Minimum measured 97.578 %, P-gp concentration 2 uM, P-gp inhibitor Elacidar): > 5.56 µM; EC90 ([2]; VeroE6/TMPRSS2, Maximum measured 191.718 %, Minimum measured 113.213 %): > 5.56 µM
11 | O=C(O)CCc1ccc(NC(=O)c2cc(Cl)cc(NC(=O)OCc3ccccc3)c2)cc1 | 23.4 | > 50 | EC90 ([1]; VeroE6/TMPRSS2): 44.4 µM; EC90 ([2]; VeroE6/TMPRSS2, Maximum measured 138.099 %, Minimum measured 61.86 %): > 50 µM
12 | O=C(Nc1cc(Cl)cc(C(=O)Nc2cc(Br)cc(-c3nnn[nH]3)c2)c1)OCc1ccccc1 | 11.4 | 41.4 | EC90 ([1]; VeroE6/TMPRSS2, Baseline response 0 %, Hill slope -3.68, Maximum measured 234.045 %, Maximum response 186.52 %, Minimum measured 36.837 %, P-gp concentration 2 uM, R squared 0.67, P-gp inhibitor Elacidar): > 16.7 µM; EC90 ([2]; VeroE6/TMPRSS2, Baseline response 0 %, Hill slope -35.305, Maximum measured 180.813 %, Maximum response 100 %, Minimum measured 13.985 %, R squared 0.137): 44.1 µM
13 | C=CC[C@H](Nc1cc(Cl)cc(NC(=O)OCc2ccccc2)c1)c1cccc(-c2nn[nH]n2)c1 | 0.449 | 14.2 | EC90 ([1]; VeroE6/TMPRSS2): 4.92 µM; EC90 ([2]; VeroE6/TMPRSS2, Baseline response 0 %, Hill slope -24.201, Maximum measured 231.442 %, Maximum response 100 %, Minimum measured 2.044 %, R squared 0.135): 15.6 µM
14 | CC[C@H](Cc1nn[nH]n1)c1ccc(N[C@H](C(=O)NC)c2cc(Cl)cc(NC(=O)OCc3ccccc3)c2)cc1 | > 50 | > 50 | EC90 ([1]; VeroE6/TMPRSS2, Baseline response 0 %, Hill slope -0.218, Maximum measured 117.472 %, Maximum response 100 %, Minimum measured 37.097 %, P-gp concentration 2 uM, R squared 0.193, P-gp inhibitor Elacidar): > 50 µM; EC90 ([2]; VeroE6/TMPRSS2, Maximum measured 168.95 %, Minimum measured 107.074 %): > 50 µM
15 | CNC(=O)[C@H](Nc1cc(Cl)cc(NC(=O)OCc2ccccc2)c1)c1cccc(-c2nn[nH]n2)c1 | > 50 | > 50 | EC90 ([1]; VeroE6/TMPRSS2, Baseline response 0 %, Hill slope -0.094, Maximum measured 132.889 %, Maximum response 100 %, Minimum measured 51.11 %, P-gp concentration 2 uM, R squared 0.041, P-gp inhibitor Elacidar): > 50 µM; EC90 ([2]; VeroE6/TMPRSS2, Maximum measured 214.272 %, Minimum measured 122.906 %): > 50 µM
16 | CC[C@H](Cc1nnn[nH]1)c1ccc(NC(=O)[C@H]2[C@H]3CCCCC[C@H]3[C@H]2NC(=O)OCc2ccccc2)cc1 | 16.1 | > 50 | EC90 ([1]; VeroE6/TMPRSS2): 44.8 µM; EC90 ([2]; VeroE6/TMPRSS2, Baseline response 0 %, Hill slope -0.151, Maximum measured 102.715 %, Maximum response 100 %, Minimum measured 55.5 %, R squared 0.202): > 50 µM
17 | CC(=O)Nc1cc(Cl)cc(C(=O)Nc2cccc(CN)c2)c1 | > 16.7 | > 50 | EC90 ([1]; VeroE6/TMPRSS2, Maximum measured 143.919 %, Minimum measured 91.997 %, P-gp concentration 2 uM, P-gp inhibitor Elacidar): > 16.7 µM; EC90 ([2]; VeroE6/TMPRSS2, Baseline response 0 %, Hill slope 0.296, Maximum measured 131.154 %, Maximum response 100 %, Minimum measured 80.704 %, R squared 0.041): > 50 µM
18 | O=C(Nc1cc(Cl)cc(C(=O)Nc2cc(-c3nnn[nH]3)ccc2F)c1)OCc1ccccc1 | > 50 | > 16.7 | EC90 ([1]; VeroE6/TMPRSS2, Baseline response 0 %, Hill slope -0.699, Maximum measured 181.18 %, Maximum response 100 %, Minimum measured 75.606 %, P-gp concentration 2 uM, R squared 0.051, P-gp inhibitor Elacidar): > 50 µM; EC90 ([2]; VeroE6/TMPRSS2, Maximum measured 136.099 %, Minimum measured 71.047 %): > 16.7 µM
19 | Cc1ccc(-c2nnn[nH]2)cc1NC(=O)c1cc(Cl)cc(NC(=O)OCc2ccccc2)c1 | 40.5 | > 16.7 | EC90 ([1]; VeroE6/TMPRSS2, Baseline response 0 %, Hill slope -16.355, Maximum measured 369.361 %, Maximum response 277.036 %, Minimum measured 8.558 %, P-gp concentration 2 uM, R squared 0.765, P-gp inhibitor Elacidar): 46.3 µM; EC90 ([2]; VeroE6/TMPRSS2, Maximum measured 182.406 %, Minimum measured 123.883 %): > 16.7 µM
20 | CCCC(=O)Nc1cc(Cl)cc(C(=O)Nc2cccc(CN)c2)c1 | > 50 | > 16.7 | EC90 ([1]; VeroE6/TMPRSS2, Maximum measured 163.615 %, Minimum measured 116.069 %, P-gp concentration 2 uM, P-gp inhibitor Elacidar): > 50 µM; EC90 ([2]; VeroE6/TMPRSS2, Baseline response 0 %, Hill slope -0.382, Maximum measured 108.39 %, Maximum response 100 %, Minimum measured 82.052 %, R squared 0.052): > 16.7 µM
21 | O=C(Nc1cc(Cl)cc(C(=O)Nc2ccc3c(c2)CNCCO3)c1)OCc1ccccc1 | 0.669 | 5.26 | EC90 ([1]; VeroE6/TMPRSS2, Baseline response 0 %, Hill slope -1.036, Maximum measured 111.022 %, Maximum response 100 %, Minimum measured 5.282 %, P-gp concentration 2 uM, R squared 0.817, P-gp inhibitor Elacidar): > 5.56 µM; EC90 ([2]; VeroE6/TMPRSS2, Baseline response 0 %, Hill slope -16.118, Maximum measured 155.613 %, Maximum response 100 %, Minimum measured 29.546 %, R squared 0.374): > 5.56 µM
22 | CC[C@H](Cc1nnn[nH]1)c1ccc(NC(=O)c2cc(Cl)cc(C3CC3)c2)cc1 | > 16.7 | > 50 | EC90 ([1]; VeroE6/TMPRSS2, Maximum measured 194.23 %, Minimum measured 94.649 %, P-gp concentration 2 uM, P-gp inhibitor Elacidar): > 16.7 µM; EC90 ([2]; VeroE6/TMPRSS2, Maximum measured 167.989 %, Minimum measured 95.132 %): > 50 µM
